Measured values taken from PubChem BioAssay AID1117350 (Cheminformatics & Chemogenomics Research Group (CCRG), …, 2015).
pIC50: −log10 of the molar value. Several values for one entry are separate records, joined by “and”; a condition that tells them apart may be missing. Equal values may be shown once. Activity calls are given as the source filed them. The rule behind the calls is not given here.

What follows are compounds tested on HeLa, chromatin condensation phenotype imaging (assay: HeLa chromatin condensation increase, dose response, imaging, IC50 (AID 1117350)).

| Compound | pIC50 | IC50 |
| --- | --- | --- |
| C[n+]1c2cc(N)ccc2cc2ccc(N)cc21 (tested in a mixture with another compound) | 5.66 | – |
| CN(C)CCC=C1c2ccccc2CCc2ccccc21 | – | > 10 µM (inactive) |
| CC(=O)Oc1ccccc1C(=O)Nc1ncc([N+](=O)[O-])s1 | – | > 10 µM (inactive) |
| COC(=O)Nc1nc2ccc(C(=O)c3ccccc3)cc2[nH]1 | 7.19 | – |
| Nc1nc(Cl)nc2c1ncn2[C@@H]1O[C@H](CO)[C@@H](O)[C@@H]1F | – | > 10 µM (inactive) |
| Clc1ccc(Nc2nnc(Cc3ccncc3)c3ccccc23)cc1 | – | > 10 µM (inactive) |
| CN(C)c1ccc2nc3ccc(=[N+](C)C)cc-3sc2c1 | – | > 10 µM (inactive) |
| CCN(CC)CCOc1ccccc1C(=O)CCc1ccccc1 | – | > 10 µM (inactive) |
| CC(=O)N(O)CCCCCNC(=O)CCC(=O)N(O)CCCCCNC(=O)CCC(=O)N(O)CCCCCN | – | > 10 µM (inactive) |
| CCN(CC)CCNC(=O)c1c(C)[nH]c(/C=C2\C(=O)Nc3ccc(F)cc32)c1C | 5.42 | – |
| C[C@@H]1C[C@H]2[C@@H]3CCC4=CC(=O)C=C[C@]4(C)[C@@]3(Cl)[C@@H](O)C[C@]2(C)[C@@]1(OC(=O)c1ccco1)C(=O)CCl | – | > 10 µM (inactive) |
| CC(C)(C)C(=O)OCOP(=O)(COCCn1cnc2c(N)ncnc21)OCOC(=O)C(C)(C)C | – | > 10 µM (inactive) |
| CCc1nc(N)nc(N)c1-c1ccc(Cl)cc1 | – | > 10 µM (inactive) |
| O=[N+]([O-])c1ccc(O)c2ncccc12 | – | > 10 µM (inactive) |
| C[C@@H]1C[C@@H]([C@H](O)CC2CC(=O)NC(=O)C2)C(=O)[C@@H](C)C1 | – | > 10 µM (inactive) |
| CCCSc1ccc2nc(NC(=O)OC)[nH]c2c1 | 7.21 | – |
| CO[C@@]12[C@H](COC(N)=O)C3=C(C(=O)C(C)=C(N)C3=O)N1C[C@@H]1N[C@@H]12 | – | > 10 µM (inactive) |
| Oc1ccc([C@H]2CNCc3c2ccc(O)c3O)cc1O | – | > 10 µM (inactive) |
| O=[N+]([O-])c1ccc(Oc2ccc(N=C=S)cc2)cc1 | – | > 10 µM (inactive) |
| CCN(CC)CCNc1ccc(CO)c2sc3ccccc3c(=O)c12 | – | > 10 µM (inactive) |
| Cc1cc(=O)c2c(O)c3c(O)cc(=O)c4c3c3c(cc(O)c1c23)C(C)(C)C=4O | – | > 10 µM (inactive) |
| O=C1c2c(O)cccc2Cc2cccc(O)c21 | – | > 10 µM (inactive) |
| COCc1c(C(C)C)nc(C(C)C)c(/C=C/[C@@H](O)C[C@@H](O)CC(=O)O)c1-c1ccc(F)cc1 | – | > 10 µM (inactive) |
| CCN(CC)CCCC(C)Nc1c2ccc(Cl)cc2nc2ccc(OC)cc12 (stereo not drawn) | – | 8.58 µM (inactive) |

| Compound | pIC50 | IC50 |
| --- | --- | --- |
| COc1cc(NCc2ccc3nc(N)nc(N)c3c2C)cc(OC)c1OC | – | > 10 µM (inactive) |
| CCOc1ccc2nc3cc(N)ccc3c(N)c2c1 | – | > 10 µM (inactive) |
| CC[n+]1c(-c2ccccc2)c2cc(N)ccc2c2ccc(N)cc21 | – | > 10 µM (inactive) |
| C=C(C)[C@H]1Cc2c(ccc3c2O[C@@H]2COc4cc(OC)c(OC)cc4[C@@H]2C3=O)O1 | 6.65 | – |
| C1CN(P2(N3CC3)=NP(N3CC3)(N3CC3)=NP(N3CC3)(N3CC3)=N2)CCO1 (stereo not drawn) | – | > 10 µM (inactive) |
| Cn1cnc([N+](=O)[O-])c1Sc1ncnc2nc[nH]c12 | – | > 10 µM (inactive) |
| CC(=O)[C@]1(O)Cc2c(O)c3c(c(O)c2[C@@H](O[C@H]2C[C@H](N)[C@H](O)[C@H](C)O2)C1)C(=O)c1ccccc1C3=O | 6.18 | – |
| Cc1nc(Nc2ncc(C(=O)Nc3c(C)cccc3Cl)s2)cc(N2CCN(CCO)CC2)n1 | – | > 10 µM (inactive) |
| C[C@]12CC[C@@H]3c4ccc(O)cc4CC[C@H]3[C@@H]1CC[C@@H]2OC(=O)CCC1CCCC1 | – | > 10 µM (inactive) |
| CC(C)=CCNc1ncnc2c1ncn2[C@@H]1O[C@H](CO)[C@@H](O)[C@H]1O | – | > 10 µM (inactive) |
| O=C(Nc1ccc(Br)cc1)c1cc(Br)cc(Br)c1O | – | > 10 µM (inactive) |
| COC(=O)[C@H]1[C@H]2C[C@@H]3c4[nH]c5cc(OC)ccc5c4CCN3C[C@H]2C[C@@H](OC(=O)/C=C/c2ccc(O)c(OC)c2)[C@@H]1OC | – | > 10 µM (inactive) |
| COc1ccc(Cc2nccc3cc(OC)c(OC)cc23)cc1OC | – | > 10 µM (inactive) |
| O=C1c2c(O)ccc(O)c2C(=O)c2c(NCCNCCO)ccc(NCCNCCO)c21 | – | > 10 µM (inactive) |
| NCCNc1ccc(NCCN)c2c1C(=O)c1ccncc1C2=O | – | > 10 µM (inactive) |
| O=C(NOCC1CC1)c1ccc(F)c(F)c1Nc1ccc(I)cc1Cl | – | > 10 µM (inactive) |
| CCC(C)(C)C(=O)O[C@H]1C[C@@H](C)C=C2C=C[C@H](C)[C@H](CC[C@@H]3C[C@@H](O)CC(=O)O3)[C@H]21 | – | > 10 µM (inactive) |
| Oc1c(Cl)cc(Cl)c2cccnc12 | – | > 10 µM (inactive) |
| CCC(C)n1ncn(-c2ccc(N3CCN(c4ccc(OC[C@H]5CO[C@](Cn6cncn6)(c6ccc(Cl)cc6Cl)O5)cc4)CC3)cc2)c1=O (stereo partly drawn) | – | > 10 µM (inactive) |
| CC[C@H](C)C(=O)O[C@H]1C[C@@H](C)C=C2C=C[C@H](C)[C@H](CC[C@@H]3C[C@@H](O)CC(=O)O3)[C@H]21 | – | > 10 µM (inactive) |
| COc1ccc(-c2nc3ccc(C4=NNC(=O)CC4C)cc3[nH]2)cc1 (stereo not drawn) | – | > 10 µM (inactive) |
| COc1cccc2c1C(=O)c1c(O)c3c(c(O)c1C2=O)C[C@@](O)(C(C)=O)C[C@@H]3O[C@H]1C[C@H](N)[C@H](O)[C@H](C)O1 | 6.43 | – |
| COc1ccc(-c2ccc3cc(C(=O)O)ccc3c2)cc1C12CC3CC(CC(C3)C1)C2 | – | > 10 µM (inactive) |
| Nc1nc(=S)c2[nH]cnc2[nH]1 | – | > 10 µM (inactive) |

| Compound | pIC50 | IC50 |
| --- | --- | --- |
| O=Cc1ccc(O)c(O)c1O | – | > 10 µM (inactive) |
| Cc1ccc2c(c1)c1c3n2CCNC3CCC1 (stereo not drawn) | – | > 10 µM (inactive) |
| Cc1cc2c(C(C)C)c(O)c(O)c(C=O)c2c(O)c1-c1c(C)cc2c(C(C)C)c(O)c(O)c(C=O)c2c1O | – | > 10 µM (inactive) |
| CCCCCCNC(=O)n1cc(F)c(=O)[nH]c1=O | – | > 10 µM (inactive) |
| Cc1ccc(S(=O)(=O)NC(=O)NN2CC3CCCC3C2)cc1 (stereo not drawn) | – | > 10 µM (inactive) |
| CC(CC1c2ccccc2CCc2ccccc21)CN(C)C (stereo not drawn) | – | > 10 µM (inactive) |
| Cc1ccc([N+](=O)[O-])[c]2c1[O][Hg]2 | 5.91 | – |
| COc1ccc(/C=C/C(=O)c2ccc(OC)cc2OC)cc1 | – | > 10 µM (inactive) |
| COC(=O)c1nc(Cl)c(Cl)nc1N | 6.06 | – |
| CCCCCCCCCCCCCC[N+](C)(C)C | – | > 10 µM (inactive) |
| Cc1ccc(CCn2c3c(c4cc(Cl)ccc42)CN(C)CC3)cn1 | – | > 10 µM (inactive) |
| CCCCCCC[N+](CC)(CC)CCCCc1ccc(Cl)cc1 | – | > 10 µM (inactive) |
| CC(=O)Oc1ccc(C2(c3ccc(OC(C)=O)cc3)Oc3ccccc3NC2=O)cc1 | – | > 10 µM (inactive) |
| CN1CC[C@H](c2c(O)cc(O)c3c(=O)cc(-c4ccccc4Cl)oc23)[C@H](O)C1 | 7.09 | – |
| CCN1/C(=C/C=C/c2sc3ccccc3[n+]2CC)Sc2ccccc21 | 5.35 | – |
| O=c1[nH]c(=O)n([C@H]2C[C@H](O)[C@@H](CO)O2)cc1F | – | > 10 µM (inactive) |
| COc1c(C)c2c(c(O)c1C/C=C(\C)CCC(=O)OCCN1CCOCC1)C(=O)OC2 | – | > 10 µM (inactive) |
| N[C@@H](Cc1ccc(N(CCCl)CCCl)cc1)C(=O)O | – | > 10 µM (inactive) |
| Cc1ccccc1C(=O)Nc1ccc(C(=O)N2CCCC(N(C)C)c3ccccc32)cc1 (stereo not drawn) | 5.47 | – |
| CCN(CC)CCOc1ccc(C(O)(Cc2ccc(Cl)cc2)c2ccc(C)cc2)cc1 (stereo not drawn) | – | > 10 µM (inactive) |
| Nc1ccc2cc3ccc(N)cc3nc2c1 | 5.61 | – |
| O=c1[nH]c(=O)n([C@H]2C[C@H](O)[C@@H](CO)O2)cc1Br | – | > 10 µM (inactive) |
| CCCCCCCCCCCCCCCCCCNC(=O)OC1CCN(C(=O)OC[C@H](COC(=O)N(Cc2cccc[n+]2CC)C(=O)c2ccccc2OC)OC)CC1 | – | > 10 µM (inactive) |
| CN1CCCC(CC2c3ccccc3Sc3ccccc32)C1 (stereo not drawn) | – | > 10 µM (inactive) |

| Compound | pIC50 | IC50 |
| --- | --- | --- |
| S=c1nc[nH]c2nc[nH]c12 | – | > 10 µM (inactive) |
| Cc1cc(CC(C)CC(C)(C)C)n(O)c(=O)c1 (stereo not drawn) | – | > 10 µM (inactive) |
| COc1cc([C@@H]2c3cc4c(cc3[C@H](O)[C@H]3COC(=O)[C@H]23)OCO4)cc(OC)c1OC | 7.95 | – |
| CN(C)/N=N/c1nc[nH]c1C(N)=O | – | > 10 µM (inactive) |
| CO[C@@H]1[C@@H](OC)[C@H](C)[C@@](O)(CC(=O)O)O[C@H]1[C@H](C)[C@H]1O[C@@]2(CC[C@@](C)([C@H]3CC[C@@](C)([C@@H]4O[C@@H]([C@H]5O[C@](C)(O)[C@H](C)C[C@@H]5C)C[C@@H]4OC4C[C@H](OC)[C@@H](OC)[C@H](C)O4)O3)O2)C[C@H](O)[C@H]1C (stereo partly drawn) | – | > 10 µM (inactive) |
| Cc1cc(O)c2ccccc2c1O | – | > 10 µM (inactive) |
| CCCOc1ccc2nc(NC(=O)OC)[nH]c2c1 | 7.11 | – |
| O=c1[nH]cc(F)c(=O)[nH]1 | – | > 10 µM (inactive) |
| Fc1ccc(C(OCCN2CCN(CCCc3ccccc3)CC2)c2ccc(F)cc2)cc1 | – | > 10 µM (inactive) |
| CCCCc1ccc2nc(NC(=O)OC)[nH]c2c1 | 8.14 | – |
| CC[C@]1(O)C[C@@H]2CN(CCc3c([nH]c4ccccc34)[C@@](C(=O)OC)(c3cc4c(cc3OC)N(C)[C@H]3[C@@](O)(C(=O)OC)[C@H](OC(C)=O)[C@]5(CC)C=CCN6CC[C@]43[C@@H]65)C2)C1 | 8.34 and 8.49 | – |
| Clc1ccccc1C(c1ccccc1)(c1ccccc1)n1ccnc1 | – | > 10 µM (inactive) |
| Oc1c(I)cc(Cl)c2cccnc12 | – | > 10 µM (inactive) |
| CN(Cc1cnc2nc(N)nc(N)c2n1)c1ccc(C(=O)N[C@@H](CCC(=O)O)C(=O)O)cc1 | – | > 10 µM (inactive) |
| COC(=O)Nc1nc2ccc(S(=O)c3ccccc3)cc2[nH]1 (stereo not drawn) | 6.62 | – |
| COc1ccc2cc1Oc1ccc(cc1)C[C@H]1c3c(cc4c(c3Oc3cc5c(cc3OC)CCN(C)[C@@H]5C2)OCO4)CCN1C | – | > 10 µM (inactive) |
| CCN(CCCCOC(=O)c1ccc(OC)c(OC)c1)C(C)Cc1ccc(OC)cc1 (stereo not drawn) | – | > 10 µM (inactive) |
| CCc1oc2ccccc2c1C(=O)c1cc(Br)c(O)c(Br)c1 | – | > 10 µM (inactive) |
| Cc1nc2ccccc2n1Cc1ccc(Cl)cc1 | – | > 10 µM (inactive) |
| Cc1nc2ccc(CN(C)c3ccc(C(=O)N[C@@H](CCC(=O)O)C(=O)O)s3)cc2c(=O)[nH]1 | – | > 10 µM (inactive) |
| CCCCCCCCCCCC[N+](C)(C)Cc1ccccc1 | – | > 10 µM (inactive) |
